System: wild-type tomato and Fuji apple
Type: in vivo
Conditions: for the highest concentration not showing harmful effects of a medicine: in vivo; for the lowest concentration showing inhibiting effect: treated at the early blooming period
Experimental: Moreover, to investigate preferable concentration of treatment of the regulation composition for gametophytic self-incompatibility of the present invention, […] ppm CuSO4 and ZnSO4 were treated to wild-type tomato and Fuji apple at the early blooming period and the harmful effects of a medicine and fruition rates were investigated (see FIGS. 6 and 7). Since absorption rate of the regulation composition for gametophytic self-incompatibility of the present invention can be increased by treating it with a spreader in cultivating fruit trees, the CuSO4 and ZnSO4 were treated with a spreader by a method of spraying on the fruit trees at a specific period, that is, the early blooming period. Thus, it was shown that fruits and plants that are pollinated by self-pollen could be acquired by the treatment of a specific concentration of CuSO4 and ZnSO4 in wild-type tomato and Fuji apple without harmful effects of the medicine. From the results, it can be concluded that an inhibitor composition of a style-specific RNase of the present invention is effective in inhibition of a style-specific RNase without respect to species, and preferable concentration of CuSO4, which is treated at the early blooming period, is at 100˜700 ppm and preferable concentration of ZnSO4 is at 100˜800 ppm. Furthermore, very high pollination rate, without harmful effects of a medicine, could be achieved by spraying the inhibitor composition for gametophytic self-incompatibility of the present invention, which was mixed with the desirable amount of spreader according to the manufacturers' instruction. Among the spreaders, the spreader of hexaconazole class, siloxane class and alkylaryl polyethoxylate class is preferable to achieve high fruition rate. The preferable concentration of the inhibitor composition for gametophytic self-incompatibility of the present invention was shown in table 1. When CuSO4 is used as an effective component of the style-specific RNase inhibitor as shown in the table 1, if the concentration of CuSO4 is below 100 ppm, it is difficult to achieve a stable fruition rate over 70% because it cannot inhibit RNase activity appropriately, on the other hand, if the concentration of CuSO4 is over 700 ppm, it is not economical because it can induce harmful effects of a medicine. Furthermore, when ZnSO4 is used as an effective component of the style-specific RNase inhibitor, if the concentration of ZnSO4 is below 100 ppm, it is difficult to achieve a stable fruition rate over 70% because it cannot inhibit RNase activity appropriately, on the other hand, if the concentration of ZnSO4 is over 800 ppm, it is not economical because it can induce harmful effects of a medicine.

the highest concentration not showing harmful effects of a medicine | Structure (SMILES) | the lowest concentration showing inhibiting effect
700 ppm | O=S(=O)([O-])[O-].[Cu+2] [CuSO4] | 100 ppm
800 ppm | O=S(=O)([O-])[O-].[Zn+2] [ZnSO4] | 100 ppm
